Experimental data reported in ChEMBL document CHEMBL4428061, “Effects of 5-O-Ribosylation of Aminoglycosides on Antimicrobial Activity and Selective Perturbation of Bacterial Translation” (J Med Chem, 2016).
pIC50: −log10 of the molar value. In brackets after ≈: the same amount, converted by molar mass.

Columns and labels:
[1] = test system: Haemophilus influenzae; test: Antimicrobial activity against Haemophilus influenzae ATCC 49247 measured after 24 hrs by double-dilution method; format: functional; conditions: ATCC 49247, 24 h
[2] = Inhibition of cytosolic eukaryotic translation in rabbit reticulocyte S30 extract measured after 60 mins by coupled transcription/translation-based luciferase reporter gene assay; parameters: species or system Oryctolagus cuniculus
[3] = test system: Burkholderia cepacia; test: Antimicrobial activity against aminoglycoside-resistant Burkholderia cepacia ATCC 25416 measured after 24 hrs by double-dilution method; format: functional; conditions: ATCC 25416, 24 h
[4] = test system: Escherichia coli; test: Antimicrobial activity against aminoglycoside-resistant Escherichia coli ATCC BAA-2452 measured after 24 hrs by double-dilution method; format: functional; conditions: ATCC BAA-2452, 24 h
[5] = test system: Klebsiella pneumoniae; test: Antimicrobial activity against aminoglycoside-resistant Klebsiella pneumoniae ATCC BAA-2470 measured after 24 hrs by double-dilution method; format: functional; conditions: ATCC BAA-2470, 24 h
[6] = test system: cytosolic eukaryotic translation versus 16S rRNA A-site; test: Selectivity ratio, ratio of IC50 for cytosolic eukaryotic translation in rabbit reticulocyte S30 extract to IC50 for 16S rRNA A-site in Escherichia coli S30 extract; format: toxicity; conditions: read-out: Ratio IC50
[7] = test system: Klebsiella pneumoniae; test: Antimicrobial activity against Klebsiella pneumoniae ATCC 10031 measured after 24 hrs by double-dilution method; format: functional; conditions: ATCC 10031, 24 h
[8] = test system: Escherichia coli; test: Antimicrobial activity against Escherichia coli ATCC 25922 measured after 24 hrs by double-dilution method; format: functional; conditions: ATCC 25922, 24 h
[9] = test system: Pseudomonas aeruginosa; test: Antimicrobial activity against Pseudomonas aeruginosa ATCC 27853 measured after 24 hrs by double-dilution method; format: functional; conditions: ATCC 27853, 24 h
[10] = test system: Pseudomonas aeruginosa; test: Antimicrobial activity against Pseudomonas aeruginosa ATCC 47085 measured after 24 hrs by double-dilution method; format: functional; conditions: ATCC 47085, 24 h
[11] = test system: Acinetobacter baumannii; test: Antimicrobial activity against Acinetobacter baumannii ATCC 19606 measured after 24 hrs by double-dilution method; format: functional; conditions: ATCC 19606 = CIP 70.34 = JCM 6841, 24 h
[12] = test system: Klebsiella pneumoniae; test: Antimicrobial activity against Klebsiella pneumoniae ATCC 13883 measured after 24 hrs by double-dilution method; format: functional; conditions: ATCC 13883, 24 h
[13] = test system: Ribosomal RNA A-site; test: Binding affinity to 16S rRNA A-site in Escherichia coli S30 extract assessed as inhibition of translation measured after 30 mins by coupled transcription/translation-based luciferase reporter gene assay; format: nucleic-acid assay
[14] = test system: Haemophilus influenzae; test: Antimicrobial activity against Haemophilus influenzae ATCC 10211 measured after 24 hrs by double-dilution method; format: functional; conditions: ATCC 10211, 24 h
[15] = Acute toxicity in iv dosed rat; format: organism-based; conditions: in vivo

SMILES: NC[C@H]1O[C@H](O[C@H]2[C@H](O)[C@@H](O[C@H]3O[C@H](CO)[C@@H](O)[C@H](N)[C@H]3O)[C@H](N)C[C@@H]2N)[C@H](N)C[C@@H]1O [TOBRAMYCIN]
- MIC [1]: 4 µg/mL (≈ 8.56 µM)
- pIC50 [2]: 4.37
- MIC [3]: > 32 µg/mL
- MIC [4]: > 32 µg/mL
- MIC [5]: > 32 µg/mL
- selectivity ratio [6]: 605
- MIC [7]: 1 µg/mL (≈ 2.14 µM)
- MIC [8]: 2 µg/mL (≈ 4.28 µM)
- MIC [9]: 1 µg/mL (≈ 2.14 µM)
- MIC [10]: 1 µg/mL (≈ 2.14 µM)
- MIC [11]: 2 µg/mL (≈ 4.28 µM)
- MIC [12]: 1 µg/mL (≈ 2.14 µM)
- pIC50 [13]: 7.15
- MIC [14]: 4 µg/mL (≈ 8.56 µM)

SMILES: NC[C@H]1O[C@H](O[C@H]2[C@H](O)[C@@H](O[C@H]3O[C@H](CO)[C@@H](O)[C@H](N)[C@H]3O)[C@H](N)C[C@@H]2N)[C@H](N)[C@@H](O)[C@@H]1O [BEKANAMYCIN]
- MIC [1]: 4 µg/mL (≈ 8.27 µM)
- pIC50 [2]: 4.54
- MIC [3]: > 32 µg/mL
- MIC [4]: > 32 µg/mL
- MIC [5]: > 32 µg/mL
- selectivity ratio [6]: 722
- MIC [7]: 1 µg/mL (≈ 2.07 µM)
- MIC [8]: 4 µg/mL (≈ 8.27 µM)
- MIC [9]: > 32 µg/mL
- MIC [10]: > 32 µg/mL
- MIC [11]: 4 µg/mL (≈ 8.27 µM)
- MIC [12]: 1 µg/mL (≈ 2.07 µM)
- pIC50 [13]: 7.40
- MIC [14]: 2 µg/mL (≈ 4.14 µM)

SMILES: NC[C@H]1O[C@H](O[C@H]2[C@H](O[C@@H]3O[C@H](CO)[C@@H](O)[C@H]3O)[C@@H](O)[C@H](N)C[C@@H]2N)[C@H](N)C[C@@H]1O
- MIC [1]: 4 µg/mL (≈ 9.12 µM)
- pIC50 [2]: 3.87
- MIC [3]: > 32 µg/mL
- MIC [4]: > 32 µg/mL
- MIC [5]: > 32 µg/mL
- selectivity ratio [6]: 1230
- MIC [7]: 4 µg/mL (≈ 9.12 µM)
- MIC [8]: 2 µg/mL (≈ 4.56 µM)
- MIC [9]: 4 µg/mL (≈ 9.12 µM)
- MIC [10]: 4 µg/mL (≈ 9.12 µM)
- MIC [11]: 32 µg/mL (≈ 73 µM)
- MIC [12]: 8 µg/mL (≈ 18.2 µM)
- pIC50 [13]: 6.96
- MIC [14]: 4 µg/mL (≈ 9.12 µM)

SMILES: NC[C@H]1O[C@H](O[C@H]2[C@H](O[C@@H]3O[C@H](CO)[C@@H](O)[C@H]3O)[C@@H](O[C@H]3O[C@H](CO)[C@@H](O)[C@H](N)[C@H]3O)[C@H](N)C[C@@H]2N)[C@H](N)C[C@@H]1O
- MIC [1]: 8 µg/mL (≈ 13.3 µM)
- pIC50 [2]: 4.31
- MIC [3]: > 32 µg/mL
- MIC [4]: > 32 µg/mL
- MIC [5]: > 32 µg/mL
- selectivity ratio [6]: 614
- MIC [7]: 2 µg/mL (≈ 3.34 µM)
- MIC [8]: 4 µg/mL (≈ 6.67 µM)
- MIC [9]: 4 µg/mL (≈ 6.67 µM)
- MIC [10]: 2 µg/mL (≈ 3.34 µM)
- MIC [11]: 32 µg/mL (≈ 53.4 µM)
- MIC [12]: 2 µg/mL (≈ 3.34 µM)
- pIC50 [13]: 7.10
- MIC [14]: 8 µg/mL (≈ 13.3 µM)

SMILES: NCC[C@H](O)C(=O)N[C@@H]1C[C@H](N)[C@@H](O[C@H]2O[C@H](CN)[C@@H](O)[C@H](O)[C@H]2O)[C@H](O[C@@H]2O[C@H](CO)[C@@H](O)[C@H]2O)[C@H]1O[C@H]1O[C@H](CO)[C@@H](O)[C@H](N)[C@H]1O
- MIC [1]: > 32 µg/mL
- pIC50 [2]: 3.71
- MIC [3]: > 32 µg/mL
- MIC [4]: > 32 µg/mL
- MIC [5]: > 32 µg/mL
- selectivity ratio [6]: 30
- MIC [7]: > 32 µg/mL
- MIC [8]: > 32 µg/mL
- MIC [9]: > 32 µg/mL
- MIC [10]: > 32 µg/mL
- MIC [11]: > 32 µg/mL
- MIC [12]: > 32 µg/mL
- pIC50 [13]: 5.19
- MIC [14]: > 32 µg/mL

SMILES: NC[C@H]1O[C@H](O[C@H]2[C@H](O)[C@@H](O)[C@H](N)C[C@@H]2N)[C@H](N)C[C@@H]1O
- MIC [1]: > 32 µg/mL
- pIC50 [2]: 3.92
- MIC [3]: > 32 µg/mL
- MIC [4]: > 32 µg/mL
- MIC [5]: > 32 µg/mL
- selectivity ratio [6]: 282
- MIC [7]: > 32 µg/mL
- MIC [8]: 16 µg/mL (≈ 52.2 µM)
- MIC [9]: > 32 µg/mL
- MIC [10]: > 32 µg/mL
- MIC [11]: > 32 µg/mL
- MIC [12]: > 32 µg/mL
- pIC50 [13]: 6.37
- MIC [14]: > 32 µg/mL

SMILES: NC[C@H]1O[C@H](O[C@H]2[C@H](O[C@@H]3O[C@H](CO)[C@@H](O)[C@H]3O)[C@@H](O[C@H]3O[C@H](CO)[C@@H](O)[C@H](N)[C@H]3O)[C@H](N)C[C@@H]2N)[C@H](N)[C@@H](O)[C@@H]1O
- MIC [1]: 8 µg/mL (≈ 13 µM)
- pIC50 [2]: 4.36
- MIC [3]: > 32 µg/mL
- MIC [4]: > 32 µg/mL
- MIC [5]: > 32 µg/mL
- selectivity ratio [6]: 1460
- MIC [7]: 4 µg/mL (≈ 6.5 µM)
- MIC [8]: 4 µg/mL (≈ 6.5 µM)
- MIC [9]: > 32 µg/mL
- MIC [10]: > 32 µg/mL
- MIC [11]: > 32 µg/mL
- MIC [12]: 4 µg/mL (≈ 6.5 µM)
- pIC50 [13]: 7.52
- MIC [14]: 8 µg/mL (≈ 13 µM)

SMILES: NC[C@H]1O[C@H](O[C@H]2[C@H](O)[C@@H](O[C@H]3O[C@H](CO)[C@@H](O)[C@H](N)[C@H]3O)[C@H](N)C[C@@H]2N)[C@H](O)[C@@H](O)[C@@H]1O [KANAMYCIN]
- MIC [1]: 8 µg/mL (≈ 16.5 µM)
- pIC50 [2]: 3.96
- MIC [3]: > 32 µg/mL
- MIC [4]: > 32 µg/mL
- MIC [5]: > 32 µg/mL
- selectivity ratio [6]: 1110
- MIC [7]: 4 µg/mL (≈ 8.26 µM)
- MIC [8]: 4 µg/mL (≈ 8.26 µM)
- MIC [9]: > 32 µg/mL
- MIC [10]: > 32 µg/mL
- MIC [11]: 8 µg/mL (≈ 16.5 µM)
- MIC [12]: 4 µg/mL (≈ 8.26 µM)
- pIC50 [13]: 7.00
- MIC [14]: 8 µg/mL (≈ 16.5 µM)

SMILES: NC[C@H]1O[C@H](O[C@H]2[C@H](O)[C@@H](O)[C@H](N)C[C@@H]2N)[C@H](N)[C@@H](O)[C@@H]1O [NEAMINE]
- MIC [1]: 32 µg/mL (≈ 99.3 µM)
- pIC50 [2]: 4.00
- MIC [3]: > 32 µg/mL
- LD50 [15]: 121 to 129 mg/kg
- MIC [4]: > 32 µg/mL
- MIC [5]: > 32 µg/mL
- selectivity ratio [6]: 215
- MIC [7]: 16 µg/mL (≈ 49.6 µM)
- MIC [8]: 16 µg/mL (≈ 49.6 µM)
- MIC [9]: > 32 µg/mL
- MIC [10]: > 32 µg/mL
- MIC [11]: > 32 µg/mL
- MIC [12]: 16 µg/mL (≈ 49.6 µM)
- pIC50 [13]: 6.34
- MIC [14]: 32 µg/mL (≈ 99.3 µM)

SMILES: NCC[C@H](O)C(=O)N[C@@H]1C[C@H](N)[C@@H](O[C@H]2O[C@H](CN)[C@@H](O)[C@H](O)[C@H]2O)[C@H](O)[C@H]1O[C@H]1O[C@H](CO)[C@@H](O)[C@H](N)[C@H]1O [AMIKACIN]
- MIC [1]: 32 µg/mL (≈ 54.6 µM)
- pIC50 [2]: 4.19
- MIC [3]: > 32 µg/mL
- MIC [4]: > 32 µg/mL
- MIC [5]: > 32 µg/mL
- selectivity ratio [6]: 923
- MIC [7]: 4 µg/mL (≈ 6.83 µM)
- MIC [8]: 2 µg/mL (≈ 3.42 µM)
- MIC [9]: 8 µg/mL (≈ 13.7 µM)
- MIC [10]: 4 µg/mL (≈ 6.83 µM)
- MIC [11]: 4 µg/mL (≈ 6.83 µM)
- MIC [12]: 4 µg/mL (≈ 6.83 µM)
- pIC50 [13]: 7.15
- MIC [14]: 32 µg/mL (≈ 54.6 µM)

SMILES: NC[C@H]1O[C@H](O[C@H]2[C@H](O[C@@H]3O[C@H](CO)[C@@H](O)[C@H]3O)[C@@H](O)[C@H](N)C[C@@H]2N)[C@H](N)[C@@H](O)[C@@H]1O [RIBOSTAMYCIN]
- MIC [1]: 8 µg/mL (≈ 17.6 µM)
- pIC50 [2]: 3.94
- MIC [3]: > 32 µg/mL
- MIC [4]: > 32 µg/mL
- MIC [5]: > 32 µg/mL
- selectivity ratio [6]: 1290
- MIC [7]: 8 µg/mL (≈ 17.6 µM)
- MIC [8]: 4 µg/mL (≈ 8.8 µM)
- MIC [9]: > 32 µg/mL
- MIC [10]: > 32 µg/mL
- MIC [11]: 16 µg/mL (≈ 35.2 µM)
- MIC [12]: 8 µg/mL (≈ 17.6 µM)
- pIC50 [13]: 7.05
- MIC [14]: 8 µg/mL (≈ 17.6 µM)
